In US10369123B2, “Perk activator for the treatment of neurodegenerative diseases” (DEUTSCHES ZENTRUM FÜR NEURODEGENERATIVE ERKRANKUNGEN E.V. …, priority 2014, dated 2019):
“Also recorded” adds a separate entry of the source.

Key:
[1] = system: LUHMES neurons overexpressing 4R-tau; experiment: MTT assay, LUHMES neurons overexpressing 4R-tau; type: cell-based, human; details: lentiviral 4R-tau overexpression 10 days, co-administration of PERK modulator
Protocol: Nunc™ Nunclon™ Delta 6-well (for protein and mRNA) or 48-well (for cell assays) plates (Thermo Fisher Scientific, Waltham, Mass., USA) were coated with 100 μg/ml poly-L-lysine (Sigma-Aldrich, St. Louis, Mo., USA) and 5 μg/ml fibronectin (Sigma-Aldrich). LUHMES (Lund Human Mesencephalic) cells, derived from human embryonic ventral mesencephalic cells by conditional immortalization (Tet-off v-myc over-expression) were seeded out in a concentration of 130,000 cells/cm^2 to achieve a confluence of 50%. […]
Concentrated lentiviral particles were titrated by transducing LUHMES cells with different dilutions at 6 hours after initiating differentiation. The lowest dilution at which at least 90% of cells expressed the transgene (as determined by immunohistochemistry of the cells fixed on day 2 post differentiation) was chosen for subsequent experiments. […]
Thiazolyl Blue Tetrazolium […] (Sigma Aldrich) was dissolved in sterile PBS to a concentration of 5 mg/ml. […] 100 μl from each well were transferred to a new 96-well plate and the absorbance was read with the FLUOstar Omega (BMG Labtech) platereader at a wavelength of 590 nm (reference wave length 630 nm). The data was analyzed using the MARS Data Analysis Software (BMG Labtech) and Prism 6.

LUHMES neurons = experiment: Morphological inspection and counts of viable cells; type: cell-based, human; details: co-treatment with PERK activator
Protocol: Nunc™ Nunclon™ Delta 6-well (for protein and mRNA) or 48-well (for cell assays) plates (Thermo Fisher Scientific, Waltham, Mass., USA) were coated with 100 μg/ml poly-L-lysine (Sigma-Aldrich, St. Louis, Mo., USA) and 5 μg/ml fibronectin (Sigma-Aldrich). LUHMES (Lund Human Mesencephalic) cells, derived from human embryonic ventral mesencephalic cells by conditional immortalization (Tet-off v-myc over-expression) were seeded out in a concentration of 130,000 cells/cm^2 to achieve a confluence of 50%. They were then differentiated for 8 days in a medium of DMEM/F12 (Sigma-Aldrich), 1 μg/ml tetracycline, […] and 490 μg/ml dbcAMP into post-mitotic neurons with a dopaminergic phenotype (Lotharius et al. 2005).
For all experiments with annonacin, the medium was replaced during the intoxication period with new medium containing glucose levels reduced to 250 μM, i.e. the physiological concentration in the human brain.
The protection by the PERK activator against annonacin and 4R-tau protein overexpression was also evident on morphological inspection of the cells. […] Lentiviral 4R-tau overexpression had similar effects. […] Cell counts of viable cells with intact nuclear and somatic morphology were counted in randomly selected 1300×1000 sized areas in 4 biological replicates each, confirming the protective effects of Pa.

[2] = system: P301S tau transgenic mice; experiment: Morris water maze; type: in vivo, mouse; details: 2 mg/kg i.p. once daily, tested at 15 weeks of age
Protocol: All animal work was conducted either on CR57BL/6 mice, obtained from Charles River Laboratories, Wilmington, Mass., USA, or on homozygous transgenic mice overexpressing human tau with the P301S mutation on a C57BL/6 background, originally developed by Michel Goedert (Xu et al. 2014), obtained by own breeding. Animals were kept at 23±1° C. under standard 12 h light-dark cycle with free access to food and water. They were handled according to the EU Council Directive 2010/63/EU, the Guide for the Care and Use of Laboratory Animals (National Research Council 2011) and the guidelines of the local institutional committee. The experiments were authorized by the local authority “Regierung von Oberbayern” under application number 55.2-1-54-2532-165-13. […]
For the efficacy trial in the early disease stage (Xu et al. 2014), P301S mice (n=8 per group) and wild type littermates (n=9 per group) received once daily i.p. injections of 2 mg/kg CCT020312 or equivalent volumes of saline from 9 to 14 weeks of age; they were analyzed with the Morris Water Maze in the 15th week of age.
To analyze spatial learning and memory, the Morris water maze test was performed at 15 weeks of age (n=8 per group) in a cylindrical water basin (diameter 120 cm) filled with water with a depth of 31 cm. […] Tracks of training and probe trial were recorded with the computerized Viewer2 system (Biobserve, Mannheim, Germany).

[3] = system: paired helical filament tau (AT180); experiment: Immunohistochemistry of P301S mouse hippocampus; type: in vivo; details: P301S mice, 2 mg/kg i.p. once daily for 6 weeks from 17 weeks of age, vs saline
Protocol: For the efficacy trial in the late disease stage (Xu et al. 2014), P301S mice and wild type littermates received once daily i.p. injections of 2 mg/kg CCT020312 or saline from 17 to 22 weeks of age (n=12 for CCT020312 treated P301S mice, n=9 for other groups); they were analyzed with the Rotarod test in the 23rd week of age.
Twelve hours after the last injection, animals were anesthetized by i.p. injections of pentobarbital at (100 mg/kg) and transcardially perfused with 0.1 M phosphate buffer for 2 min, then fixed for 10 min with 4% paraformaldehyde. Post-fixation of the brain was done in 4% paraformaldehyde at 4° C. for 48 h. Their brains were prepared for histological analysis, as described (Xu et al. 2014). For the immunoblot analysis in P301S mice and wild type mice were sacrificed by cervical dislocation, their brains were frozen on dry ice and stored at −80° C. for Western blot analysis.
Fixed brains (n=6 per group) were cut into 30 μm-thickness of coronal sections with a cryomicrotome (CM3050 S, Leica). […]

In the case of `CCN(CC)CCC(=O)N1N=C(c2c(-c3ccccc3)c3cc(Br)ccc3[nH]c2=O)CC1c1ccc(Br)cc1` (centres unmarked) [CCT020312, 6-bromo-3-[5-(4-bromo-phenyl)-1-(3-diethylamino-propionyl)-4,5-dihydro-1H-pyrazol-3-yl]-4-phenyl-1H-quinolin-2-one], the “4R-specific toxicity in MTT assay” value [1] is reported as “reduced significantly”, the “number of viable cells: toxicity of annonacin and 4R-tau overexpression” value (LUHMES neurons) is reported as “mitigated these effects” and the “latency to find the hidden platform / learning curve” value ([2]; P301S tau mice, vs saline) is reported as “significantly improved; also recorded: steeper learning curve”. The “latency to find the hidden platform / learning curve” value ([2]; wild type mice) was “did not significantly affect; also recorded: did not change the learning curve” and the “AT180-immunoreactivity in the hippocampal region, histology” value [3] was “decreased”.
